Measured values: patent US8765746B2 (Millennium Pharmaceuticals, Inc., priority 2010, dated 2014)

Experiments:
Type in all cases: biochemical
PI3Kbeta = target: T1, PI3Kbeta (Homo sapiens, UniProt P42338); experiment: Human PI3K beta enzyme assay (HTRF, as for PI3K alpha); settings: at 1.11 μM; for inhibition at 1.11 µM: read-out: PI3Kbeta % inh
T1 construct: His (N); host or cells: SF9 insect cells (baculovirus)
Summary of the method: (§1)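 N-His p110β/δ co-expressed with untagged p85 in Sf9, p110γ alone. Enzyme 5.25 nM (β), 0.75 nM (δ), 5 nM (γ), with ATP 25 uM and di-C8 PI(4,5)P2 3.5 uM (added-solution levels), pH 7.00, 30 min RT. HTRF read-out: biotin-PIP3, GST-GRP-1 PH domain, Eu anti-GST, streptavidin-XL.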

VPS34 = target: T2, VPS34 (Homo sapiens, UniProt Q8NEB9); experiment: Human VPS34 enzyme assay (Adapta Universal Kinase Assay); settings: for inhibition at 1.11 µM: 1 h, read-out: VPS34 % ihn
T2 construct: GST (N); host or cells: SF9 insect cells (baculovirus)
T2 sequence (Q8NEB9 whole entry): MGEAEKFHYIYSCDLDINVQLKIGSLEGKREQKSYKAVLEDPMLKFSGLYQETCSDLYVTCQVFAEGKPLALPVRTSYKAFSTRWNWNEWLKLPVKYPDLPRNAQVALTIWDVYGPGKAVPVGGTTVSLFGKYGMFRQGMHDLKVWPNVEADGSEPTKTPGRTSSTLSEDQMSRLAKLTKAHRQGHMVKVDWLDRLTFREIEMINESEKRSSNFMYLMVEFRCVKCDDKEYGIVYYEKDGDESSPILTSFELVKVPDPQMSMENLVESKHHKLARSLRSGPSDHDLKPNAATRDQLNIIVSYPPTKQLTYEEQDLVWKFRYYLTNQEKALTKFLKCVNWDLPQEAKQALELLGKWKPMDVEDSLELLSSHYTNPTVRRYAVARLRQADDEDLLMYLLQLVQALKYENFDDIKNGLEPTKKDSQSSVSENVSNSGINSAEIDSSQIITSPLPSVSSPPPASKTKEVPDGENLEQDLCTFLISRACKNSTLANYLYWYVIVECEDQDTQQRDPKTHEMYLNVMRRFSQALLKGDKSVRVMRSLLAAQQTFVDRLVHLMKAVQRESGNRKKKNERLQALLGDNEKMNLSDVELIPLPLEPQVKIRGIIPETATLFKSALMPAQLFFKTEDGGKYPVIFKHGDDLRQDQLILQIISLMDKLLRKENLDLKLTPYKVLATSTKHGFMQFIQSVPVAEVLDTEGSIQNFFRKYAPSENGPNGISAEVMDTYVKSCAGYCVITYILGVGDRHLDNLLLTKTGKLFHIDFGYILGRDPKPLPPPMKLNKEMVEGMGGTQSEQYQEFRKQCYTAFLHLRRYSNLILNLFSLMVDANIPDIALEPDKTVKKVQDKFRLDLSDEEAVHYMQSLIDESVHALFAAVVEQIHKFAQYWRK
Summary of the method: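 Human VPS34, N-terminally GST-tagged and baculovirus-expressed in Sf9 cells. Solution with 20 uM ATP and 200 uM PI-PS added, then one with 5 nM enzyme (levels in each added solution), in buffer with 2 mM DTT and 2 mM MnCl2; 1 h at room temperature. ADP read by Adapta TR-FRET (Eu anti-ADP antibody, Alexa Fluor 647 tracer).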

PI3Kdelta = target: T3, PI3Kdelta (Homo sapiens, UniProt O00329); experiment: Human PI3K delta enzyme assay (HTRF, as for PI3K alpha); settings: read-out: PI3Kdelta % inh
T3 construct: His (N); host or cells: SF9 insect cells (baculovirus)
T3 sequence (O00329 whole entry): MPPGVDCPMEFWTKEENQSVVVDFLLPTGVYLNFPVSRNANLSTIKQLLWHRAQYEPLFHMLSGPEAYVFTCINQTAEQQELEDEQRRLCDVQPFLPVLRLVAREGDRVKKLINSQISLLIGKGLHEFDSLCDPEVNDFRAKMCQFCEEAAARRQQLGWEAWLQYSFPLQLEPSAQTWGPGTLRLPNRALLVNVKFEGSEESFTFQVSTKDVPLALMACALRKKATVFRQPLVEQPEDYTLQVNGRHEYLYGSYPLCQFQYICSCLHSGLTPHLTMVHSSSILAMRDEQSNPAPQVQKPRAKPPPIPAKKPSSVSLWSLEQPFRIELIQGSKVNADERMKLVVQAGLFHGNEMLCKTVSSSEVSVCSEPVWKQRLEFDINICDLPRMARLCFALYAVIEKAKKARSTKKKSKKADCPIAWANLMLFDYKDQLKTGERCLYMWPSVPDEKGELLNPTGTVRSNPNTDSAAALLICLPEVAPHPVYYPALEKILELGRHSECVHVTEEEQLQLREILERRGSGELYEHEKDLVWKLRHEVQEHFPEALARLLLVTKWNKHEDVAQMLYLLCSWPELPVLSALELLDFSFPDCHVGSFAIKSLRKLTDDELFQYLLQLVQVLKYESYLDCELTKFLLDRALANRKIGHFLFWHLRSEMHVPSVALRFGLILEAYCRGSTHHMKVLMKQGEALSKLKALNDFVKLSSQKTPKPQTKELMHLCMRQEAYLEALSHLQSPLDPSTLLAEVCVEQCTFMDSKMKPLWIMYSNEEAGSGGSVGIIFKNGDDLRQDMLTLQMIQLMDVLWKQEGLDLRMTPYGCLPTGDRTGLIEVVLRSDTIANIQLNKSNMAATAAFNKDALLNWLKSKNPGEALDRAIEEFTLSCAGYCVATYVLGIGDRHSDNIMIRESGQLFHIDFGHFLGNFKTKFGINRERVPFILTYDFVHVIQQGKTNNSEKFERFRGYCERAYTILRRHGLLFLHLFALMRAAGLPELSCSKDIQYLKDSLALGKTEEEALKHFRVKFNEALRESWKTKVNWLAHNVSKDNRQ
T3 sequence (P27986 whole entry partner): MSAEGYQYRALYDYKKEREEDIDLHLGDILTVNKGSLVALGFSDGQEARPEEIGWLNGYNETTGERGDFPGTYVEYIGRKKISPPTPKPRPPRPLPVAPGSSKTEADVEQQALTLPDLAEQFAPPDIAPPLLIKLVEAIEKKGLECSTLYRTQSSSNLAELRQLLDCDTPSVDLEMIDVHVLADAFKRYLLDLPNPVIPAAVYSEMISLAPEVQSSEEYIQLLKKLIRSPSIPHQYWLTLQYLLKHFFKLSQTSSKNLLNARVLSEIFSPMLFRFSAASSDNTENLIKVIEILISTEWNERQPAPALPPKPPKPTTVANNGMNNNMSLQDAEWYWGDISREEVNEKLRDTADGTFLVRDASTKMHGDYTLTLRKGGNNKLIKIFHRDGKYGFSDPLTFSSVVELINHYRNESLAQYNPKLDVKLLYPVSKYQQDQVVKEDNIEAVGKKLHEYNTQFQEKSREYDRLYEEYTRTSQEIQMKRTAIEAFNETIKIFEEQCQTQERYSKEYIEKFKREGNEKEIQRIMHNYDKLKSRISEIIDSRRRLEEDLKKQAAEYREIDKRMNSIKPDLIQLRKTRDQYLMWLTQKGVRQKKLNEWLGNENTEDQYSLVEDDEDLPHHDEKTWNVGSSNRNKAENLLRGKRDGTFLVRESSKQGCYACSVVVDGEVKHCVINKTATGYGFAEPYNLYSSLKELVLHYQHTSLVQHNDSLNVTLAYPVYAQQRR
Summary of the method: as §1

PI3Kalpha = target: T4, PI3Kalpha (Homo sapiens, UniProt P42336); experiment: Human PI3Kα enzyme assay (HTRF); settings: for inhibition at 1.11 µM: read-out: PI3Kalpha % inh; for PI3Kalpha % inh: at 1.11 μM
T4 construct: His (N); host or cells: SF9 insect cells (baculovirus)
T4 sequence (P42336 whole entry): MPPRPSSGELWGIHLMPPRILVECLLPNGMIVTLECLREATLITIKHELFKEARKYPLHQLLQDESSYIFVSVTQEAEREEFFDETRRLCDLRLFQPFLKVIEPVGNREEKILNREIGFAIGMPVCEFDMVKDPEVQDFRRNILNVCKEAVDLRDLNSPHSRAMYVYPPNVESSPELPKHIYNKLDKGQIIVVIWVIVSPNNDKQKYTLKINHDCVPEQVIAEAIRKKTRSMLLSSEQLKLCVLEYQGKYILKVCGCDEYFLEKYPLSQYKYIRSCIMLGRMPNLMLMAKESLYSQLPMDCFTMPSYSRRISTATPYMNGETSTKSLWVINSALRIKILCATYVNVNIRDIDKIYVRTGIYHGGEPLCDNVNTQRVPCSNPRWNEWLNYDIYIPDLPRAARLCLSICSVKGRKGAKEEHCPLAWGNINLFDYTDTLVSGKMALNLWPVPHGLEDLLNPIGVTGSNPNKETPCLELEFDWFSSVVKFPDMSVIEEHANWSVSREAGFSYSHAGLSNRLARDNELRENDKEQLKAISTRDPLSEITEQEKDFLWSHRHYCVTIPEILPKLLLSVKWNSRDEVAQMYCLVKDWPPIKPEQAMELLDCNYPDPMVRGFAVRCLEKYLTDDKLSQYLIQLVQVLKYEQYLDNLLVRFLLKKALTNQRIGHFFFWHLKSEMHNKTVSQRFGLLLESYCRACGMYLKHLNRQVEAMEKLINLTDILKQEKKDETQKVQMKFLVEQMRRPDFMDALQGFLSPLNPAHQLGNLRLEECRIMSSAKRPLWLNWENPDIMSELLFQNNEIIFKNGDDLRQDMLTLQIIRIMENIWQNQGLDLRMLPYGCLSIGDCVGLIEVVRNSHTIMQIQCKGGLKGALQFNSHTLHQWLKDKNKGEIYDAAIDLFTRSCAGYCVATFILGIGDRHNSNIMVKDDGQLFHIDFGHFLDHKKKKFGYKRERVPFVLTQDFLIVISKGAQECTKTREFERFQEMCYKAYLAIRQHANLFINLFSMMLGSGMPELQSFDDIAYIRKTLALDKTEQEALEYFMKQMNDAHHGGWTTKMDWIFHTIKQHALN
T4 sequence (P27986 whole entry partner): as the sequence (P27986 whole entry partner) above
Summary of the method: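 His-tagged p110α co-expressed with p85 in Sf9 cells was reacted for 30 min at room temperature in pH 7.00 Hepes buffer with 10 mM MgCl2. Addition solutions held 25 uM ATP, 3.5 uM di-C8 PI(4,5)P2 and 0.4875 nM enzyme. The reaction was quenched with EDTA/biotin-PIP3 and detected by HTRF (GST-GRP-1 PH domain, streptavidin-XL, Eu anti-GST) after 1 h.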

PI3Kgamma = target: T5, PI3Kgamma (Homo sapiens, UniProt P48736); experiment: Human PI3K gamma enzyme assay (HTRF, as for PI3K alpha); settings: read-out: PI3Kgamma % inh
T5 construct: His (N); host or cells: SF9 insect cells (baculovirus)
Summary of the method: as §1

T1 sequence (P42338 whole entry): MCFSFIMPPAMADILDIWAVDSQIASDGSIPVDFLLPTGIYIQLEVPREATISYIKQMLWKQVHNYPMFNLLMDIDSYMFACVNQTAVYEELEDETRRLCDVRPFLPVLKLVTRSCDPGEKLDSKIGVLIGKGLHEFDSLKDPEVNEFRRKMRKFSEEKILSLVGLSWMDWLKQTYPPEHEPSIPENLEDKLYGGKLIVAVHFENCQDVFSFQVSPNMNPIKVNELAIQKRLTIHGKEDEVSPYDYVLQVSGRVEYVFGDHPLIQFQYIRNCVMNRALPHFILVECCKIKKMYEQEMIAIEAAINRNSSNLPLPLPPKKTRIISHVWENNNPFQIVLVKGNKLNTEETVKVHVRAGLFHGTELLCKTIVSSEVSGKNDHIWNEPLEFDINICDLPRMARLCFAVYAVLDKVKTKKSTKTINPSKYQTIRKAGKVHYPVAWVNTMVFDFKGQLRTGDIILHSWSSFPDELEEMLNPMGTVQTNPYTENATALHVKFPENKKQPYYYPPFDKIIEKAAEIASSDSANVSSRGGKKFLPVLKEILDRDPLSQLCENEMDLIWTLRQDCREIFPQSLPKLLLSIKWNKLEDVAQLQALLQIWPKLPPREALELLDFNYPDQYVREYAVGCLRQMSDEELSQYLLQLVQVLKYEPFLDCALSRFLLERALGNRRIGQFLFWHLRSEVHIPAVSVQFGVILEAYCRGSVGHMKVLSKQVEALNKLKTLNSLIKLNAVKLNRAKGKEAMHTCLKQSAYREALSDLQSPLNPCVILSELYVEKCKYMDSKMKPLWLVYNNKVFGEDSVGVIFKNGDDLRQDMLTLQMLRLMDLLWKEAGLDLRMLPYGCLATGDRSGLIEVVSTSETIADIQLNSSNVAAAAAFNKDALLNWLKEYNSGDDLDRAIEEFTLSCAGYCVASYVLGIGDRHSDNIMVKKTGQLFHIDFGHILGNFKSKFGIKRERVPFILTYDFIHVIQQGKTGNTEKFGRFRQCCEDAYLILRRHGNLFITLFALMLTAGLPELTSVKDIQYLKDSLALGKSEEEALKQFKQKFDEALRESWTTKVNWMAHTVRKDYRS
T1 sequence (P27986 whole entry partner): as the sequence (P27986 whole entry partner) above

Structure (SMILES)	inhibition at 1.11 µM (PI3Kbeta) [%]	inhibition at 1.11 µM (VPS34) [%]	inhibition at 1.11 µM (PI3Kdelta) [%]	inhibition at 1.11 µM (PI3Kalpha) [%]	inhibition at 1.11 µM (PI3Kgamma) [%]	PI3Kbeta % inh (PI3Kbeta) [%]	PI3Kalpha % inh (PI3Kalpha) [%]	VPS34 % ihn (VPS34; at 1.11 μM) [%]
O=C1NCCC(c2ccc(Cl)c(Cl)c2)c2cc(N3CCOCC3)sc21 (centres unmarked) [Compound 185, 4-(3,4-dichlorophenyl)-2-(morpholin-4-yl)-4,5,6,7-tetrahydro-8H-thieno[2,3-c]azepin-8-one]	106	47.8	110	27.7	53.4			
O=C1CC(c2cccc(Cl)c2)c2cc(N3CCOCC3)sc21 (centres unmarked) [Compound 186]	92.3	26.8	74.9	15.1	23.3			
CC1(C)NC(=O)c2sc(-c3ccncc3)cc2C1c1ccc(Cl)cc1 (centres unmarked) [Compound 191, 4-(4-chlorophenyl)-5,5-dimethyl-2-(pyridin-4-yl)-5,6-dihydrothieno[2,3-c]pyridin-7(4H)-one]	79.4	7.04	30.3	9.58	6.39			
CN1CC(c2ccc(Cl)cc2)c2cc(N3CCOCC3)sc2C1=O (centres unmarked) [Compound 198, 4-(4-chlorophenyl)-6-methyl-2-morpholino-5,6-dihydrothieno[2,3-c]pyridin-7(4H)-one]	86.6	8.01	62.9	8.93	14.9			
O=C1CCC(O)C(c2ccc(Cl)cc2)c2cc(-c3ccncc3)sc21 (centres unmarked) [Compound 210, 4-(4-chlorophenyl)-5-hydroxy-2-pyridin-4-yl-4,5,6,7-tetrahydro-8H-cyclohepta[b]thiophen-8-one]	73		34.6		5.88		5.17	−0.70

Results, then the compound that gave them:

inhibition at 1.11 µM (PI3Kbeta) [%]	inhibition at 1.11 µM (VPS34) [%]	inhibition at 1.11 µM (PI3Kdelta) [%]	inhibition at 1.11 µM (PI3Kalpha) [%]	inhibition at 1.11 µM (PI3Kgamma) [%]	PI3Kbeta % inh (PI3Kbeta) [%]	PI3Kalpha % inh (PI3Kalpha) [%]	VPS34 % ihn (VPS34; at 1.11 μM) [%]	Structure (SMILES)
117	12.9	110	102	62.3				N#Cc1c(N2CCOCC2)sc2c1C(c1ccc3ccccc3c1)CCNC2=O (centres unmarked) [Compound 188]
	42.1	110		49.5	114.75	81.32		O=C1NCCC(c2ccc3ccccc3c2)c2nc(N3CCOCC3)sc21 (centres unmarked) [Compound 209]
